Broadly, the inhibition is the share of the control response that was lost under treatment.

We go through six molecules from ChEMBL document CHEMBL3132769, “Fragment growing to retain or alter the selectivity of anchored kinase hinge-binding fragments” (Medchemcomm, 2014).

The target of assay [1] is T1, Calcium/calmodulin-dependent protein kinase type IV (Homo sapiens) (UniProt Q16566).
T1 sequence (whole entry): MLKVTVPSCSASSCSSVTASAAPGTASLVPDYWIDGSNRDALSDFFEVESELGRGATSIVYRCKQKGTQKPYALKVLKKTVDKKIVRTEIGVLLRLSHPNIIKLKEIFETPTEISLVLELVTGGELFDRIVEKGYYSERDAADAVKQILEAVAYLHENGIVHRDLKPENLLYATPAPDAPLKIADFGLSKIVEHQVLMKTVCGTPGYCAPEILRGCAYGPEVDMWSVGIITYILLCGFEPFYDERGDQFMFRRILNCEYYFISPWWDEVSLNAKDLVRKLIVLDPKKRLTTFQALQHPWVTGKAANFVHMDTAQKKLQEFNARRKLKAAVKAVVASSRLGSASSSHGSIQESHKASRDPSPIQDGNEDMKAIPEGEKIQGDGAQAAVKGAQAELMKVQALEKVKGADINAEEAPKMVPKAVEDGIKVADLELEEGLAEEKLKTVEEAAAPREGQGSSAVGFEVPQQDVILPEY
In words: Inhibition of human full length CAMK4 expressed in baculovirus assessed as substrate phosphorylation using fluorescence-labelled peptides as substrate at 0.1 uM after 90 mins by microfluidic peptide phosphorylation assay.

Assay [2] addresses Casein kinase I isoform delta (Homo sapiens) (UniProt P48730). In words: Inhibition of human CK1D catalytic domain expressed in Escherichia coli cell assessed as substrate phosphorylation using fluorescence-labelled peptides as substrate at 0.1 uM after 90 mins by microfluidic peptide phosphorylation assay.
Assay [3] has as its target Epidermal growth factor receptor (Homo sapiens) (UniProt P00533). In words: Inhibition of human EGFR catalytic domain expressed in baculovirus assessed as substrate phosphorylation using fluorescence-labelled peptides as substrate at 0.1 uM after 90 mins by microfluidic peptide phosphorylation assay.
Assay [4] deals with Calcium/calmodulin-dependent protein kinase type II subunit beta (Homo sapiens) (UniProt Q13554). Nature of the assay: Inhibition of human CAMK2 beta catalytic domain expressed in baculovirus assessed as substrate phosphorylation using fluorescence-labelled peptides as substrate at 0.06 uM after 90 mins by microfluidic peptide phosphorylation assay.
Chain of Calcium/calmodulin-dependent protein kinase type II subunit beta (Homo sapiens) (Q13554 whole entry, the tested form may be a part): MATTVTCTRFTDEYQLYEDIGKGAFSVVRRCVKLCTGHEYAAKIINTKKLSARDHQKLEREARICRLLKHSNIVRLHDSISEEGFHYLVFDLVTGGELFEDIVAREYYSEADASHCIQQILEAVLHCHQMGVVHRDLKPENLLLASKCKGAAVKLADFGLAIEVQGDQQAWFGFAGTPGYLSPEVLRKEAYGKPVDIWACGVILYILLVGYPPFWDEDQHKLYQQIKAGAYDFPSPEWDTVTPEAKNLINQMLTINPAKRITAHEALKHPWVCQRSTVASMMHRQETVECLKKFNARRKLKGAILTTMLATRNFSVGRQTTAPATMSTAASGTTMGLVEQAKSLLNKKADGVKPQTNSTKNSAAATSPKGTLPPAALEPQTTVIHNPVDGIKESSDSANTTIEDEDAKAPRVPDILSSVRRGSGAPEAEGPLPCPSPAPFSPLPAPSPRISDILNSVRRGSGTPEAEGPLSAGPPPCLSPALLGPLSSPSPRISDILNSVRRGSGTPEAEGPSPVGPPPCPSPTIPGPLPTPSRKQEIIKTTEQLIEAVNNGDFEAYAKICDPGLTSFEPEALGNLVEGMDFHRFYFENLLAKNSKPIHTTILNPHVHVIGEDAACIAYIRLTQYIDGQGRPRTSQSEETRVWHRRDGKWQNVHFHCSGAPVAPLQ
For assay [5], the target named is T2, Serine/threonine-protein kinase D3 (Homo sapiens) (UniProt O94806).
T2 sequence (whole entry): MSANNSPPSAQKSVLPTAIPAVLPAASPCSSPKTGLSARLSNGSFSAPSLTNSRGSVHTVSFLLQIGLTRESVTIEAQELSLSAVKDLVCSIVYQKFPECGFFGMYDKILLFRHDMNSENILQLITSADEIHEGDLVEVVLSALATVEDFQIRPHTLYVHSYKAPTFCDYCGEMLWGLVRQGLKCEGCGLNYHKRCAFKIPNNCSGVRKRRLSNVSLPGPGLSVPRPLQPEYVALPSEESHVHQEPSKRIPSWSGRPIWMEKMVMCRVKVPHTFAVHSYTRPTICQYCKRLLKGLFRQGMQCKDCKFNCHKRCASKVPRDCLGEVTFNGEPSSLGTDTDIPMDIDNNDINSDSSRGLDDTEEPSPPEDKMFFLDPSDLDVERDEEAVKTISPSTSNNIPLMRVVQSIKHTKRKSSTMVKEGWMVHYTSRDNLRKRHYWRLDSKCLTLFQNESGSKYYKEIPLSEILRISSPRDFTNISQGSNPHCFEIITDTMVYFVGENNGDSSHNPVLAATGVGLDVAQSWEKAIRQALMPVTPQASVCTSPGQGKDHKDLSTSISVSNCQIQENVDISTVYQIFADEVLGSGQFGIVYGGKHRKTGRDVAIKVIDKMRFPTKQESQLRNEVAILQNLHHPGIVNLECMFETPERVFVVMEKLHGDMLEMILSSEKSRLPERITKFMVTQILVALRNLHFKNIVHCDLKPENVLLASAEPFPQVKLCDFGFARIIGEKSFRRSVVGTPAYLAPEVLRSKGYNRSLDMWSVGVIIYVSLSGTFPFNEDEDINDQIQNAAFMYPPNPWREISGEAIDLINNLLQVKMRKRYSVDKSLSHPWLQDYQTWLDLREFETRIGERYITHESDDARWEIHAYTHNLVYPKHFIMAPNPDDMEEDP
In words: Inhibition of human full length PKD3 expressed in baculovirus assessed as substrate phosphorylation using fluorescence-labelled peptides as substrate at 9 uM after 90 mins by microfluidic peptide phosphorylation assay.

In assay [6] the target is Protein kinase C delta type (Homo sapiens) (UniProt Q05655). In words: Inhibition of human truncated PKC delta expressed in baculovirus assessed as substrate phosphorylation using fluorescence-labelled peptides as substrate at 9 uM after 90 mins by microfluidic peptide phosphorylation assay.
The target in assay [7] is Protein kinase C eta type (Homo sapiens) (UniProt P24723). Nature of the assay: Inhibition of human truncated PKC eta expressed in baculovirus assessed as substrate phosphorylation using fluorescence-labelled peptides as substrate at 9 uM after 90 mins by microfluidic peptide phosphorylation assay.
Assay [8] addresses RAF proto-oncogene serine/threonine-protein kinase (Homo sapiens) (UniProt P04049). Nature of the assay: Inhibition of human truncated c-Raf expressed in baculovirus assessed as substrate phosphorylation using fluorescence-labelled peptides as substrate at 9 uM after 90 mins by microfluidic peptide phosphorylation assay.
Assay [9] deals with Epidermal growth factor receptor (Homo sapiens) (UniProt P00533). In words: Inhibition of human EGFR catalytic domain expressed in baculovirus assessed as substrate phosphorylation using fluorescence-labelled peptides as substrate at 9 uM after 90 mins by microfluidic peptide phosphorylation assay.
Chain of Epidermal growth factor receptor (Homo sapiens) (P00533 whole entry, the tested form may be a part): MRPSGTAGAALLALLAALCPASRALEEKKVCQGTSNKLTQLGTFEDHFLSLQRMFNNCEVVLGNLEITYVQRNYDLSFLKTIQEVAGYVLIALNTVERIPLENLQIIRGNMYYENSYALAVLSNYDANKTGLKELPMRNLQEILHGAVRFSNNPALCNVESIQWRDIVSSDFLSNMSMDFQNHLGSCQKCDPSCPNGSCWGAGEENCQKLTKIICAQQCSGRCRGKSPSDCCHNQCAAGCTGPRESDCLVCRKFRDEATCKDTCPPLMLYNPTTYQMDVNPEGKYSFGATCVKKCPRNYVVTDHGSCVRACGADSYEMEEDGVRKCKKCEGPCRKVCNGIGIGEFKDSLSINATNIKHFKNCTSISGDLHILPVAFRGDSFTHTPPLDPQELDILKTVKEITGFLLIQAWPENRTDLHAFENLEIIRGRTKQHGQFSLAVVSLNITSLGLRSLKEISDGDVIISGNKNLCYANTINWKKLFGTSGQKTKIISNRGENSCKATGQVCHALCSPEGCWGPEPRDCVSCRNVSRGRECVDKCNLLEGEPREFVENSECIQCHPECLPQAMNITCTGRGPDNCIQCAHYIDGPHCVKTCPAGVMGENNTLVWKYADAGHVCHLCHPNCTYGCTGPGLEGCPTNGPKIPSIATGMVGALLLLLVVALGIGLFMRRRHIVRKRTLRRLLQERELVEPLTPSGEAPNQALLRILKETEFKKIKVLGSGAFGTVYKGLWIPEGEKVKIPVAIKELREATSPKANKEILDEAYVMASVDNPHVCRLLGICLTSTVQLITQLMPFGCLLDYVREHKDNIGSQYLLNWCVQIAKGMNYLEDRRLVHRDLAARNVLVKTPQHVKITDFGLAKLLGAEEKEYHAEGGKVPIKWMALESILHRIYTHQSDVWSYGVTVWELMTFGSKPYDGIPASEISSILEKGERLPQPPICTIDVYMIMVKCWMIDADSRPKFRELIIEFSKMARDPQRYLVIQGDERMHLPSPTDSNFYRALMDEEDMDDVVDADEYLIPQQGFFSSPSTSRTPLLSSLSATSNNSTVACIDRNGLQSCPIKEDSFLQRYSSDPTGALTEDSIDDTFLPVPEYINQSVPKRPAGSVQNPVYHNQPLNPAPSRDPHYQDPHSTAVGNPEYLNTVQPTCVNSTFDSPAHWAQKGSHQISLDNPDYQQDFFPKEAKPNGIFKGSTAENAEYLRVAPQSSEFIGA
For assay [10], the target named is MAP kinase-activated protein kinase 2 (Homo sapiens) (UniProt P49137). In words: Inhibition of human full length MAPKAPK2 expressed in baculovirus assessed as substrate phosphorylation using fluorescence-labelled peptides as substrate at 70 uM after 90 mins by microfluidic peptide phosphorylation assay.
Chain of MAP kinase-activated protein kinase 2 (Homo sapiens) (P49137 whole entry, looked up): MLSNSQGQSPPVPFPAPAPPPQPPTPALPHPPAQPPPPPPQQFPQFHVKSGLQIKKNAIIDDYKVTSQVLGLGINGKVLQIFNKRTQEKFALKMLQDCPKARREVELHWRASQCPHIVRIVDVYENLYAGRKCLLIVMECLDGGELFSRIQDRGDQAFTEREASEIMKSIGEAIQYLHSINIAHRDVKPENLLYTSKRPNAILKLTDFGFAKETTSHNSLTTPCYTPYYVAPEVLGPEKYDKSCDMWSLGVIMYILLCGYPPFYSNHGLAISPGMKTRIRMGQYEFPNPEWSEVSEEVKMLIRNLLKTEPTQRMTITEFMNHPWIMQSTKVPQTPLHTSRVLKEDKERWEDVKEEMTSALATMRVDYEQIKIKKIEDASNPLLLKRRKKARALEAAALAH
In assay [11] the target is Ribosomal protein S6 kinase alpha-3 (Homo sapiens) (UniProt P51812). Nature of the assay: Inhibition of human full length RSK2 expressed in baculovirus assessed as substrate phosphorylation using fluorescence-labelled peptides as substrate at 70 uM after 90 mins by microfluidic peptide phosphorylation assay.
Assay [12] concerns the target Vascular endothelial growth factor receptor 2 (Homo sapiens) (UniProt P35968). In words: Inhibition of human KDR cytoplasmic domain expressed in baculovirus assessed as substrate phosphorylation using fluorescence-labelled peptides as substrate at 70 uM after 90 mins by microfluidic peptide phosphorylation assay.
Assay [13] concerns the target Hepatocyte growth factor receptor (Homo sapiens) (UniProt P08581). Nature of the assay: Inhibition of human MET cytoplasmic domain expressed in baculovirus assessed as substrate phosphorylation using fluorescence-labelled peptides as substrate at 420 uM after 90 mins by microfluidic peptide phosphorylation assay.
Assay [14] concerns the target Fibroblast growth factor receptor 4 (Homo sapiens) (UniProt P22455). In words: Inhibition of human FGFR4 catalytic domain expressed in baculovirus assessed as substrate phosphorylation using fluorescence-labelled peptides as substrate at 1000 uM after 90 mins by microfluidic peptide phosphorylation assay.
Assay [15] has as its system Tyrosine-protein kinase ABL1 (Homo sapiens), P00519 [T315I]. In words: Inhibition of human truncated ABL T315I mutant expressed in baculovirus assessed as substrate phosphorylation using fluorescence-labelled peptides as substrate at 1000 uM after 90 mins by microfluidic peptide phosphorylation assay.

Chain of Hepatocyte growth factor receptor (Homo sapiens) (P08581 whole entry, the tested form may be a part): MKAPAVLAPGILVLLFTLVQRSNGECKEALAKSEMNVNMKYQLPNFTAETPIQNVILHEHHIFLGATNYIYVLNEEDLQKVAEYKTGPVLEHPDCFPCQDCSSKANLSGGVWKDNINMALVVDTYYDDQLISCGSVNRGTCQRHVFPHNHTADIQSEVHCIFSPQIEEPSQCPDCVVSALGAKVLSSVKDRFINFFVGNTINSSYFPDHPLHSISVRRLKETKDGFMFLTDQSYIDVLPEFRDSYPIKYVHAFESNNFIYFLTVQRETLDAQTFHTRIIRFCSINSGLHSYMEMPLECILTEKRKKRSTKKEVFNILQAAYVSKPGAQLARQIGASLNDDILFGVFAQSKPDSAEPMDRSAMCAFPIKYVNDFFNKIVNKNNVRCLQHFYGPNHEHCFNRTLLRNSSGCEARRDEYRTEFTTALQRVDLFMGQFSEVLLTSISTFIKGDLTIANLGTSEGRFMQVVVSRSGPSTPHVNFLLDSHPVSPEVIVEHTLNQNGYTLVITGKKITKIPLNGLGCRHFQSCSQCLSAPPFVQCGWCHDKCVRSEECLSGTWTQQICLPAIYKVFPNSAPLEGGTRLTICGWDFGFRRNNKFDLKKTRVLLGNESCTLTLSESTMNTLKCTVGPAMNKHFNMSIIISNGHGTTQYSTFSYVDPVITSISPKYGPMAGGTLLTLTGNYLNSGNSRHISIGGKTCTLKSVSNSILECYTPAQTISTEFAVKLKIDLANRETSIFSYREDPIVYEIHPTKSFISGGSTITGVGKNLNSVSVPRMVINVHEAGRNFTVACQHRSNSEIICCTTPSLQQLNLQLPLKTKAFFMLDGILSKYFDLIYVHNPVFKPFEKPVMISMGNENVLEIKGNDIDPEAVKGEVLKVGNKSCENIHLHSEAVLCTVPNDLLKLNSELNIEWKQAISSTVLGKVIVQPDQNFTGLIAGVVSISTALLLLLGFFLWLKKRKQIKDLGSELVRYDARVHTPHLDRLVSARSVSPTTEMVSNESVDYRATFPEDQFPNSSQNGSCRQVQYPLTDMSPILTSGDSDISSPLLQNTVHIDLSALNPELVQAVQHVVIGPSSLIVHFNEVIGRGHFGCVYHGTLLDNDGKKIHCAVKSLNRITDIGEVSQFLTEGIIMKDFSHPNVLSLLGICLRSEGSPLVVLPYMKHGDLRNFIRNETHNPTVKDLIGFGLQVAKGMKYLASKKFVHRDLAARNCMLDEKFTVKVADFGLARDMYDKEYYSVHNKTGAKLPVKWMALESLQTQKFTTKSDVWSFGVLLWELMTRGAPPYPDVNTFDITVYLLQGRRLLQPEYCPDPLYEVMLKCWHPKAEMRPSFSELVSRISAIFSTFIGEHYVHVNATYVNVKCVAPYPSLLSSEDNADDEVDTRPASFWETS
Chain of Fibroblast growth factor receptor 4 (Homo sapiens) (P22455 22-802 limits assumed): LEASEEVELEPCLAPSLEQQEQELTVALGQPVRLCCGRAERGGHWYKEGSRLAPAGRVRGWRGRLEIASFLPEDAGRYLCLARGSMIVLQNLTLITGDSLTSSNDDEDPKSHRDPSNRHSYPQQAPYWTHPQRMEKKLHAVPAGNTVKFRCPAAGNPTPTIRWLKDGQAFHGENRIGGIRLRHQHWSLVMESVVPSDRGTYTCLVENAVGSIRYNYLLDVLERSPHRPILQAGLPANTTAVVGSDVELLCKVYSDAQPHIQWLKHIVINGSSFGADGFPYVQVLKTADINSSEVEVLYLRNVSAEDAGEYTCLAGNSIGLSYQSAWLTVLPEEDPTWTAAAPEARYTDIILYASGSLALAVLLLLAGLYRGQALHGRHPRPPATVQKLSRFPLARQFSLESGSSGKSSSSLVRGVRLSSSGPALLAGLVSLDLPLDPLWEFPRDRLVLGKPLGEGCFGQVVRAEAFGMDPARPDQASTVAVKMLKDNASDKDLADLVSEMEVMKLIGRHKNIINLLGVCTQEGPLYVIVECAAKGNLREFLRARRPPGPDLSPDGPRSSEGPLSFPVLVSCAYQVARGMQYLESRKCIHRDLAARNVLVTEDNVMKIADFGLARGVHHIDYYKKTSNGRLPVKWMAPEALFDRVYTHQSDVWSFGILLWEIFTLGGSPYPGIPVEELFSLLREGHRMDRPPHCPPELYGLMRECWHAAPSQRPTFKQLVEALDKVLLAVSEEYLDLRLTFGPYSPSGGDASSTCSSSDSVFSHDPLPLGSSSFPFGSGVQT
Chain of Casein kinase I isoform delta (Homo sapiens) (P48730 whole entry, looked up, the tested form may be a part, canonical isoform): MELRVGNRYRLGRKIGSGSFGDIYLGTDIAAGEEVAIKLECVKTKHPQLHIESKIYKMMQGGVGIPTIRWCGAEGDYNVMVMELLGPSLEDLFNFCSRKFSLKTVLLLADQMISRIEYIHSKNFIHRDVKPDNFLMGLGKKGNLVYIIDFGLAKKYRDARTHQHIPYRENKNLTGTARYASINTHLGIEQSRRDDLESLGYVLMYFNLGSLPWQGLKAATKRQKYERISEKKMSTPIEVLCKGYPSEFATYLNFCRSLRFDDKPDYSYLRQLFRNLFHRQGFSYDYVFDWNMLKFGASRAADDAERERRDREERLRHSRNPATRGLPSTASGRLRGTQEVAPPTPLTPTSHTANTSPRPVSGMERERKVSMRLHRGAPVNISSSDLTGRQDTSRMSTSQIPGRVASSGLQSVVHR

Consider `C[C@H](CN(C)C)Oc1nc(Nc2cc3cccc(Cl)c3cn2)cnc1C#N`, for which the inhibition is 3.5% in [1], 9.5% in [2] and 0.5% in [3].

Take `NC1(Cc2ccc(Cl)cc2)CCN(c2ncnc3[nH]ccc23)CC1`: the inhibition in assay [4] was found to be 0%.

As for `NCC1CN(c2ncnc3[nH]c4cnccc4c23)CCO1` (stereo not given), the inhibition in [5] was 80%; in assay [6], 37.5%; in assay [7] it was 54.5%; in assay [8], 7.5%; in assay [9], 12%.

Turning to `CNCc1ccc(-c2ncnc3[nH]cnc23)cc1`, the figures for the inhibition in assay [10], in assay [11] and in assay [12] were 77%, 75% and 64%, respectively.

In the case of `c1nc(N2CCOCC2)c2nc[nH]c2n1`, the inhibition in assay [13] turned out to be 23%.

`c1cnc2[nH]ccc2c1`: the inhibition in assay [14] worked out at 28.5%; in assay [15], 58%.
